Data taken from patent US10752624B2, “Kinase inhibitors” (Origenis GmbH, priority 2012, dated 2020).

Assays:
[1] = molecular target: T1, SYK kinase (Homo sapiens, UniProt P43405); assay: SYK Assay (OMNIA Kinase Assay, SOX peptide fluorescence); assay type: biochemical; settings: 1 mM ATP, 10 μM Omnia Peptide Substrate Tyr 7, 30° C., readings for 30 minutes; read-out: SYK Activities: IC50
T1 construct: purchased Invitrogen, Carlsbad
How it was run: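 The reaction was run at 30 °C with 1 mM ATP, 0.2 mM DTT and 10 μM Omnia Tyr 7 peptide (final) and started by adding SYK. Chelation-enhanced SOX fluorescence (ex 360/em 485 nm) was read every 30 s for 30 min. Reaction velocity versus inhibitor concentration was fitted sigmoidally for IC50.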

[2] = molecular target: LRRK2 (Homo sapiens, UniProt Q5S007); assay: LRRK2-LRRK2 G2019S-Assay (LanthaScreen Eu Kinase Binding Assay); settings: 5 nM LRRK2, 10 nM tracer 236, 2 nM EU-Anti-GST antibody, 1 h at RT; read-out: LRRK2 Activities: IC50
How it was run: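 Compound competition with Alexa Fluor 647 tracer 236 (10 nM) was measured after 1 h at room temperature, using 5 nM LRRK2 (wild type or mutant) bound to 2 nM Eu-anti-GST antibody. IC50 was derived from the acceptor/donor (665/615 nm) ratio using a variable-slope dose-response fit.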

Chain of LRRK2 (Q5S007 970-2527 limits assumed): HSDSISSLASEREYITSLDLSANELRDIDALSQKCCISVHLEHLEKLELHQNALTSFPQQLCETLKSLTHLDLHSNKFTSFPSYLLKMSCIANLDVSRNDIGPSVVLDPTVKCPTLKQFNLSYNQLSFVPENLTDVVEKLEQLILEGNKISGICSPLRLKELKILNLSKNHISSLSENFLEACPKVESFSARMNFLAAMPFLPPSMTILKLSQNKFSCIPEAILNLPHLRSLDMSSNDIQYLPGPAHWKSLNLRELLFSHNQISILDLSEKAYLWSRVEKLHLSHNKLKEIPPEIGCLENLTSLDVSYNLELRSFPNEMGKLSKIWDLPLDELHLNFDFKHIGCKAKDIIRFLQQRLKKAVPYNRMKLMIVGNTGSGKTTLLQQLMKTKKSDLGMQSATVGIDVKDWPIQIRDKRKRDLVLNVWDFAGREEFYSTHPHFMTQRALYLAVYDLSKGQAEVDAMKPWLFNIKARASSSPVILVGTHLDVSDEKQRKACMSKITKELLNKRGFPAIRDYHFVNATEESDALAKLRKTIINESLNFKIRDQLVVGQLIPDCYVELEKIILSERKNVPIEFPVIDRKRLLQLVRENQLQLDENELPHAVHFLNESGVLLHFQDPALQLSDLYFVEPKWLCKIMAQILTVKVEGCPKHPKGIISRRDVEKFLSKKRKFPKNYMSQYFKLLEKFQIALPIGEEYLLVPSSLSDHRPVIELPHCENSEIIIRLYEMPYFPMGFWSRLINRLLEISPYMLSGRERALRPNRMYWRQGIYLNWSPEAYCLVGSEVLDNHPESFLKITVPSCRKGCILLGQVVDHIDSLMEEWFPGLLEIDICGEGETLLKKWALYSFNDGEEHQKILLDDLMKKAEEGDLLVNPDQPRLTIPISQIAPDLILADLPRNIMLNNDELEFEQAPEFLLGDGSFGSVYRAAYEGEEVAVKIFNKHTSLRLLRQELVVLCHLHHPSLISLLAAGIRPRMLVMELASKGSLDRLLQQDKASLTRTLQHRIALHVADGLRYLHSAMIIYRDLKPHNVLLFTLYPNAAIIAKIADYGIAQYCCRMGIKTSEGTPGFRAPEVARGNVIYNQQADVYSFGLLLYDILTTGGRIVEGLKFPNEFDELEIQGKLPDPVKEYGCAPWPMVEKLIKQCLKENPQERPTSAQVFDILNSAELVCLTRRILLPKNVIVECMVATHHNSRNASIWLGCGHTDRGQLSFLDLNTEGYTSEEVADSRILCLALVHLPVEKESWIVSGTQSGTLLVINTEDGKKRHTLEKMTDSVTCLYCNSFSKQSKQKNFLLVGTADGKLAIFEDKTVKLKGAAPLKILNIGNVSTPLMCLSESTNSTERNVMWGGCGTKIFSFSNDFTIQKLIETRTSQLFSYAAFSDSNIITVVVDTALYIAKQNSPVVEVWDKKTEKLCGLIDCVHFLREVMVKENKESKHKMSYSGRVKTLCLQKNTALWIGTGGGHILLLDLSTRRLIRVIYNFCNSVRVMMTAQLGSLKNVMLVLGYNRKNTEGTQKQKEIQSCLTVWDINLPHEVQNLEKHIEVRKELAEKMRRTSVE

Structure (SMILES)	IC50 [1] [nM]	IC50 [2] [nM]
Brc1ccc2c(c1)nc(Nc1cnn(C3CCOCC3)c1)c1n[nH]cc12 [Example 348, 7-bromo-N-(1-(tetrahydro-2H-pyran-4-yl)-1H-pyrazol-4-yl)-2H-pyrazolo[3,4-c]quinolin-4-amine]	10 to 100	< 10
CS(=O)(=O)c1ccc2c(c1)nc(Nc1cnn(C3CCOCC3)c1)c1[nH]ncc12 [Example 120, 7-(methylsulfonyl)-N-(1-(tetrahydro-2H-pyran-4-yl)-1H-pyrazol-4-yl)-3H-pyrazolo[3,4-c]quinolin-4-amine]	10 to 100	< 10
COc1c(Nc2nc3ccc(S(C)(=O)=O)cc3c3cn[nH]c23)cnn1C(C)C [Example 227, N-(1-isopropyl-5-methoxy-1H-pyrazol-4-yl)-8-(methylsulfonyl)-3H-pyrazolo[3,4-c]quinolin-4-amine]	100 to 1000	< 10
COc1ccc(Nc2nc3cc(S(C)(=O)=O)ccc3c3cn[nH]c23)cc1OC [Example 302, N-(3,4-dimethoxyphenyl)-7-(methylsulfonyl)-3H-pyrazolo[3,4-c]quinolin-4-amine]	100 to 1000	100 to 1000
COc1cccc2nc(Nc3cnn(CC(C)(C)O)c3)c3[nH]ncc3c12 [Example 256, 1-(4-((9-methoxy-3H-pyrazolo[3,4-c]quinolin-4-yl)amino)-1H-pyrazol-1-yl)-2-methylpropan-2-ol]	100 to 1000	< 10

More lines, now with the values ahead:

IC50 [1] [nM]	IC50 [2] [nM]	Structure (SMILES)
100 to 1000	< 10	CO[C@H]1CCCC[C@H]1n1cc(Nc2nc3ccc(S(C)(=O)=O)cc3c3c[nH]nc23)cn1 [Example 353, N-(1-((1R,2S)-2-methoxycyclohexyl)-1H-pyrazol-4-yl)-8-(methylsulfonyl)-2H-pyrazolo[3,4-c]quinolin-4-amine]
100 to 1000	10 to 100	COc1ccc2nc(Nc3ccc(C(=O)N4CCC(N5CCN(C)CC5)CC4)cc3)c3n[nH]cc3c2c1 [Example 6, (4-((8-methoxy-2H-pyrazolo[3,4-c]quinolin-4-yl)amino)phenyl)(4-(4-methylpiperazin-1-yl)piperidin-1-yl)methanone]
< 10	< 10	CC(C)(C)N1CCC(n2cc(Nc3nc4ccc(S(C)(=O)=O)cc4c4cn[nH]c34)cn2)CC1 [Example 211, N-(1-(1-(tert-butyl)piperidin-4-yl)-1H-pyrazol-4-yl)-8-(methylsulfonyl)-3H-pyrazolo[3,4-c]quinolin-4-amine]
100 to 1000	< 10	COCCCn1cc(Nc2nc3cccc(OC)c3c3cn[nH]c23)cn1 [Example 183, 9-methoxy-N-(1-(3-methoxypropyl)-1H-pyrazol-4-yl)-3H-pyrazolo[3,4-c]quinolin-4-amine]
100 to 1000	100 to 1000	COc1ccc2nc(Nc3ccc(CN4CCC(N5CCN(C)CC5)CC4)cc3)c3n[nH]cc3c2c1 [Example 22, 8-methoxy-N-(4-((4-(4-methylpiperazin-1-yl)piperidin-1-yl)methyl)phenyl)-2H-pyrazolo[3,4-c]quinolin-4-amine]
10 to 100	< 10	COc1cccc2nc(Nc3cnn(C(C)C)c3)c3[nH]ncc3c12 [Example 182, N-(1-isopropyl-1H-pyrazol-4-yl)-9-methoxy-3H-pyrazolo[3,4-c]quinolin-4-amine]
100 to 1000	10 to 100	COCCn1cc(Nc2nc3ccc(OC)cc3c3c[nH]nc23)cn1 [Example 109, 8-methoxy-N-(1-(2-methoxyethyl)-1H-pyrazol-4-yl)-2H-pyrazolo[3,4-c]quinolin-4-amine]
